In patent US20250114350A1, “INHIBITORS OF […] AS ANTIFUNGAL AGENTS” (Regents of the University of Minnesota, priority 2023, published 2025):
Values after ≈ are worked out from the molar mass of the structure shown. “Also recorded” adds a separate entry of the source. Where two headings read alike, the source gives them in different places.

How the values were obtained:
[1] = tested on: C. neoformans; details: Hast et al. 2011; cited from earlier work
[2] = tested on: C. neoformans FTase (CnFTase); details: Hast et al. 2011; cited from earlier work
[3] = tested on: J774A.1 macrophage-like murine cells; details: mouse, 24 h
Protocol: Macrophage cytotoxicity assays. […] 2 μL of the serially diluted compound were transferred to a 96-well plate containing 200 μL DMEM (100× dilution). J774A.1, a macrophage-like murine cell line, was incubated in DMEM (Dulbecco's Modified Eagle Medium, Sigma-Aldrich) to 70% confluency, harvested, washed in PBS, then transferred to black, clear-bottom 96-well plates (Greiner) at 10^5 cells/well. Plates were incubated overnight at 37° C. and 5% CO2. The macrophage medium covering the J774A.1 monolayer was replaced with 100 μL of DMEM containing the serially diluted inhibitors (50× dilution) and incubated for 24 h at 37° C. and 5% CO2. Macrophage viability was assessed at 24 h by the addition of 10% AlamarBlue and incubating for 3 h at 37° C. and 5% CO2 prior to fluorescence measurement (FLUORStar Optima plate reader). Assays were performed in duplicate.

[4] = biological target: CnFTase (C. neoformans farnesyl transferase, α/β heterodimer) (Cryptococcus neoformans, UniProt J9VSJ6+T2BPA1); assay: CnFTase activity assay: farnesylation of a dansylated (fluorescent) peptide, inhibitor concentration giving half-maximal enzyme rates at 1 μM FPP (1μMIC50); details: read-out: CnFTase IC50 (1μMIC50), condition A: 20 nM CnFTase, dansyl-GCVVM 0.62 μM, Tris-HCl pH 7.5, ZnCl2 12.5 μM, 2.5% DMSO, room temperature, triplicate
Protocol: (§2) CnFTase activity assay. […] Final CnFTase concentrations (from 5× or 10× stocks in 20 mM Tris-HCl pH7.5, 20 mM NaCl, 5 μM ZnCl2, 1 mM TCEP, 1 mg/mL BSA): A, 20 nM; B: 4.4, 6.7, 10 nM triplets. […] For experiments that included phosphate, pH 7.5 stock was added to the desired final concentration. […] Data for determining ^1μMIC50 values (condition A) was collected in triplicate. Initial rates, vo, were extracted by fitting a straight line to the initial to tmax seconds of the reaction progress curves, where tmax values were selected by inspection and entered into curator tables for automated analysis. 1μMIC50 were determined by fitting a single-site Langmuir ligand-binding isotherm to the dependence of vo on inhibitor concentration (2, see below). All other experiments (condition B) all other experiments (condition B) used three different CnFTase concentrations, collecting progress curves as a function of FPP, inhibitor, and phosphate concentrations. The resulting triplet of progress curves was used to extract vo values automatically by minimizing
Single-site binding isotherms. Signals, S, resulting from a binding reaction were fit to
where α and β are the baselines associated with the apo-protein and its ligand complex, respectively, and y fractional occupancy of the binding site
If x is an inhibitor concentration, then IC50=Ka^−1. […] In general, baseline signals, σ, (α or β) can be constant, or linear functions of ligand concentration x

[5] = tested on: Gfp-Ras1 localization in C. neoformans; assay: Ras1 cellular localization by fluorescent microscopy; type: cell-based, Cryptococcus neoformans; details: sub-lethal concentrations; 0.78 μM (sub-inhibitory)
Protocol: (§1) FIG. 3. CnFTase is the in vivo target of 2f. (A) Ras cellular mislocalization, assessed by epifluorescent microscopy (1000×). Bar=10 μm. Top. […] Bottom. Control patterns of Ras localization with wild-type (left) and ram1Δ deletion (right) strains expressing mCherry-Ras1. […] A C. neoformans strain transformed with the galactose-regulated pGAL7-RAM1 over-expression construct was incubated with glucose (uninduced, bottom), and galactose (induced, top). Antifungal activity was assessed by the relative size of the zone of fungal growth inhibition surrounding sterile discs impregnated with 10 μL of 20 mM 2f dissolved in DMSO (bottom disk) or DMSO alone (top disc).
Compound 2f inhibited FTase activity in vivo. […] Both effects are consistent with CnFTase being the target of Compound 2f, as expected.
Microscopy. […] A drug-free control sample contained 1% DMSO. Ras1 localization in a ram1Δ mutant strain was determined in a similar manner: a ram1Δ mutant and wild-type strain, each expressing mCherry-Ras1 under a constitutive promoter (CBN121 and SKE17) were incubated overnight in YPD medium at 30° C., diluted to OD600 0.1 in YPD, then incubated for 24 hours at 37° C. All cells were visualized and imaged by fluorescent microscopy at 1000× magnification using a Zeiss Imager A1 microscope and Zeiss Axio-Cam MRM digital camera. […]

[6] = tested on: C. neoformans strain over-expressing CnFTase (pGAL7-RAM1); assay: Disc diffusion assay with galactose-inducible RAM1 over-expression; type: cell-based, Cryptococcus neoformans; details: galactose induced; discs with 10 μL of 20 mM
Protocol: as §1
Molecular Biology. […] To induce C. neoformans mating, strains of opposite mating types were co-cultured on MS medium at 25° C. for seven days (Murashige, T, et al., Physiol Plantarum, 1962, 15, 473-497). A C. neoformans strain with a galactose-inducible RAM1 allele (CBN482) was similarly created with primers designed to create an overlap construct comprising the C. neoformans RAM1 5′ sequence-neomycin resistance cassette-GAL7 promoter-RAM1 coding sequence (FIG. 9) to precisely replace the RAM1 promoter with the GAL7 galactose inducible when introduced into the H99 genome by biolistic transformation.
Disc diffusion assay. […]

[7] = biological target: CnFTase (Cryptococcus neoformans, UniProt J9VSJ6+T2BPA1); assay: CnFTase steady-state kinetics fit to competitive/uncompetitive/mixed inhibition models
Protocol: as §2
where χk^2 is the squared difference of the calculated and observed emissions in the k^th iteration of the minimizer, fi the initial fraction (constrained in the interval [0.5,1]) of the T time points of the progress curve, Di the dilution factor of the i^th progress curve (0.44:0.66:1 for condition B), S0ik the fluorescence emission intensity of the i^th progress curve at t=0 at the k^th (this value is refined individually using a one-dimensional golden section search^52 with fi and v0 values of the k−1 iteration), and ^obsSji, the observed intensity of the i^th progress curve at the j^th time point. The target function 1 is minimized using conjugate gradients with vo and fi as the degrees of freedom. The resulting rates were then fit to binding polynomials describing the inhibition mechanism (5-13, see below).
Binding polynomials for inhibition models. The initial steady-state rates of a reaction involving a single-substrate x, and inhibitor y are given by
Three binding polynomials were used:
where Ka, KC, and KU are the affinities of the enzyme for substrate, competitive inhibitor, and uncompetitive inhibitor, respectively.
Solvers for non-ideal conditions. In non-ideal conditions 9 is false, and the total protein concentration needs to be included as a degree of freedom, requiring the roots of the following multivariate polynomial to be found (see below for derivation):

[8] = tested on: Schizosaccharomyces pombe; assay: S. pombe MIC assay (efflux effects); details: for MIC: Schizosaccharomyces pombe
[9] = biological target: mammalian FTase (Homo sapiens, UniProt P49354+P49356); assay: Inhibition of mammalian FTase; type: biochemical
[10] = tested on: C. neoformans; assay: Minimum inhibitory concentration (MIC): disc diffusion and broth microdilution; details: Cryptococcus neoformans
Protocol: Antifungal activity was determined by measuring minimum inhibitory concentrations (MIC) of C. neoformans by two methods: a solid medium disc diffusion assay and broth microdilution assay.
Disc diffusion assay. Overnight cultures of C. neoformans (about 18 hours) were normalized to OD600 0.6, diluted 1/10, and 200 μL of each sample were spread onto either a YPD or YPGal (yeast extract-peptone medium with 3% galactose) plate using sterile glass beads. After drying, 10 μL of compound or solvent control (DMSO) was added to sterile 6 mm filter discs on each plate. Plates were incubated for 48 hours at 37° C.
Minimum inhibitory concentration (MIC) assays. C. neoformans: Overnight cultures (˜18 h) of C. neoformans strains incubated in YPD medium were diluted to 500 cells/ml in RPMI medium buffered with MOPS. Cells were aliquoted (200 μL/well) in black-wall, clear-bottom 96-wells plates (Greiner). Compound stock solutions in DMSO ranged from 9 μM to 20 mM, and added to 200 μL cell suspension aliquoted in 96-well plates. Final aqueous concentrations ranged from 200 μM to 0.09 μM, limiting DMSO to 1%. After 48-hr incubation at 37° C. or 30° C. for 48 h, 10% AlamarBlue (BioRad) was added. The end-point fluorescence intensity of reduced AlamarBlue was measured using a fluorescence plate reader (FLUORStar Optima plate reader) at the time point the indicator turned from blue to pink in healthy control cells.^51 Assays were performed in duplicate.

[11] = tested on: C. neoformans biofilms; assay: Biofilm inhibition; type: cell-based, Cryptococcus neoformans

Chain of CnFTase (J9VSJ6 entry or part of it): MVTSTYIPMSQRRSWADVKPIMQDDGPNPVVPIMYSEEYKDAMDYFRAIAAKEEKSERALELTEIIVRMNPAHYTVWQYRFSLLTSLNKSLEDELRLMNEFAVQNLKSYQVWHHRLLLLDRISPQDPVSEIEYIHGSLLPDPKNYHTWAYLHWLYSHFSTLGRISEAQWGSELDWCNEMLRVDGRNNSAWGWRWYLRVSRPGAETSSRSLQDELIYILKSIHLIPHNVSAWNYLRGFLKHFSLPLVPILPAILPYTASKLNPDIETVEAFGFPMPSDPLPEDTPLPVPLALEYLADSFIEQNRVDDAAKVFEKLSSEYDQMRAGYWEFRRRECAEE
Chain of CnFTase (T2BPA1 entry or part of it): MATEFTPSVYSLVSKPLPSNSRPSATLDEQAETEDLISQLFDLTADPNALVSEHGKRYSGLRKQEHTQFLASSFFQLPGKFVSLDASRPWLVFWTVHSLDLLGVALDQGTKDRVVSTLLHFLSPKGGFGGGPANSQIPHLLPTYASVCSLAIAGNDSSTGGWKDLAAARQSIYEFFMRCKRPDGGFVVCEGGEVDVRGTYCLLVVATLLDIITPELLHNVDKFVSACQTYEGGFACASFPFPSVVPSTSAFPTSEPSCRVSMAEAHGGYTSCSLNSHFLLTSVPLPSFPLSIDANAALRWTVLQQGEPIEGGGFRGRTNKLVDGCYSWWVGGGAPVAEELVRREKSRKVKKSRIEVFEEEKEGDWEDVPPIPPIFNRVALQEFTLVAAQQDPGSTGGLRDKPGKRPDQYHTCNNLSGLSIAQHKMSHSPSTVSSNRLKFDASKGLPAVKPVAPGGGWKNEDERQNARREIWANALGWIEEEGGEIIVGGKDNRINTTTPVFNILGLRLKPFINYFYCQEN
Chain of CnFTase (C. neoformans farnesyl transferase, α/β heterodimer) (J9VSJ6 entry or part of it): as the sequence (J9VSJ6 entry or part of it) above
Chain of CnFTase (C. neoformans farnesyl transferase, α/β heterodimer) (T2BPA1 entry or part of it): as the sequence (T2BPA1 entry or part of it) above
Chain of mammalian FTase (P49356 whole entry, the tested form may be a part, one chain of several): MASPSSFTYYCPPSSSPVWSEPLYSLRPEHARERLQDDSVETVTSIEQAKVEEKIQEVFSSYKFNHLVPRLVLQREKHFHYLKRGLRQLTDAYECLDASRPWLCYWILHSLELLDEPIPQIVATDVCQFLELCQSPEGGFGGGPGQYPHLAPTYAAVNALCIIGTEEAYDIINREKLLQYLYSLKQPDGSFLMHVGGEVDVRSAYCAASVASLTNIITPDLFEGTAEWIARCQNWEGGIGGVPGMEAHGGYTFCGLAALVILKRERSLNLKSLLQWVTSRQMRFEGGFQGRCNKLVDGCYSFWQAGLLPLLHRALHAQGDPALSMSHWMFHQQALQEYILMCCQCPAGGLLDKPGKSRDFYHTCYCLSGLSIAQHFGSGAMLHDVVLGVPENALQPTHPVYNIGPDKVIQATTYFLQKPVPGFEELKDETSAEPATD

| SMILES | antifungal activity [1] | inhibition of C. neoformans FTase (CnFTase) [2] | MIC [3] | IC50 [4] | Gfp-Ras1 localization [5] | effect of CnFTase (Ram1) over-expression on antifungal activity [6] | improvement of competitive affinity in the H state ([7]; H state vs L state) | competitive affinity better than the uncompetitive value ([7]; H state, 10 mM phosphate) | Ki ([7]; HKU, uncompetitive inhibitor affinity (dissociation constant), H state, 10 mM phosphate (H state)) | Ki ([7]; LKU, uncompetitive inhibitor affinity (dissociation constant), L state, absence of phosphate (L state)) | Ki ([7]; read-out: HKC, competitive inhibitor affinity (dissociation constant), H state, 10 mM phosphate (H state)) | Ki ([7]; read-out: LKC, competitive inhibitor affinity (dissociation constant), L state, absence of phosphate (L state)) | inhibition mode ([7]; with respect to FPP) | MIC improvement in efflux-defective strain ([8]; MJ-1682 vs wild-type) | MIC ([8]; efflux-defective strain MJ-1682) | MIC ([8]; wild-type S. pombe) | IC50 on mammalian FTase, worse than on the fungal enzyme [9] | MIC [10] | biofilm inhibition [11] |
| --- | --- | --- | --- | --- | --- | --- | --- | --- | --- | --- | --- | --- | --- | --- | --- | --- | --- | --- | --- |
| N#Cc1ccc(Cn2cncc2CN2CCN(c3cccc(Cl)c3)C(=O)C2)cc1 [L-778,123] | did not have antifungal activity | modest inhibition |  |  |  |  |  |  |  |  |  |  |  |  |  |  |  |  |  |
| CCCC[C@H]1CN(c2cccc(OC(F)(F)F)c2)C(=O)CN1Cc1cncn1Cc1ccc(Br)cc1 [Compound 2f, (S)-4-((1-(4-Bromobenzyl)-1H-imidazol-5-yl)methyl)-5-butyl-1-(3-(trifluoromethoxy)phenyl)piperazin-2-one] |  |  | 200 µM (≈ 113 µg/mL) | 190 ± 60 nM | remains in the cytoplasm; also recorded: does not localize to the plasma membrane | negates 2f antifungal activity; also recorded: negated antifungal activity | ~100 fold | ~170 fold | 500 nM | 750 nM | 3 nM | 320 nM | mixture of two binding modes: uncompetitive like Compound 2q, and a competitive mode that displaces FPP | eight-fold | 1.5 µM (≈ 0.848 µg/mL) | 12.5 µM (≈ 7.07 µg/mL) | about 30 fold | 3 to 6 µM (≈ 1.7 to 3.39 µg/mL) | inhibits C. neoformans biofilms |
